Source: patent US12662707B2, “MYC amplification drives resistance to pan-RAS inhibitors in pancreatic cancer” (The Trustees of Columbia University in the City of New York, priority 2024, dated 2026)

Columns and labels:
[1] = test system: murine Dusp6 mRNA in normal colon and skin; test: PK/PD in normal colon and skin of CDX tumor-bearing mice (Dusp6 qRT-PCR); type: in vivo, mouse
Description: Tumor-bearing animals were randomized and assigned into groups (n=3-10/group). Vehicle or RMC-7977 was administered via oral gavage daily at 10 mg/kg and animals were treated for 21-28 days. Studies were terminated early if tumor burden reached humane endpoint. Body weights were collected twice a week during the study. Means±s.e.m were plotted in the waterfall plots. For the single-dose pharmacokinetic/pharmacodynamic (PK/PD) study, mice were randomized and assigned into groups (n=3-6/dose/timepoint). A single dose of RMC-7977 was administered orally at 10 mg/kg, 25 mg/kg and 50 mg/kg. […]
Whole blood, tumor, colon and skin tissue concentrations of RMC-7977 were determined using liquid chromatography-tandem mass spectrometry (LC-MS/MS) methods. […] After thorough mixing and centrifugation, the supernatant was directly analyzed on a Sciex 6500+ triple quadrupole mass spectrometer equipped with an ACQUITY or Shimadzu UPLC system. […] RMC-7977 and IS (verapamil or terfenadine) were detected by positive electrospray ionization using multiple reaction monitoring (RMC-7977: m/z 865.4/706.4 or m/z 865.3/833.5; verapamil: m/z 455.2/164.9; terfenadine: m/z 472.3/436.4). The lower limit of quantification was 0.5 ng/mL or 2.0 ng/mL for blood, tumor, and other tissue. […]

[2] = Tumor versus blood concentrations, all model systems tested; type: in vivo; details: BALB/c, C57Bl/6, KPF/FC, mouse, tumor vs whole blood, oral, read-out: Kp (concentration in tumor tissues vs blood)
Description: Whole blood, tumor, colon and skin tissue concentrations of RMC-7977 were determined using liquid chromatography-tandem mass spectrometry (LC-MS/MS) methods. […] After thorough mixing and centrifugation, the supernatant was directly analyzed on a Sciex 6500+ triple quadrupole mass spectrometer equipped with an ACQUITY or Shimadzu UPLC system. An ACQUITY UPLC BEH C18 or C4 […] (2.1×50 mm) column was used with gradient elution for compound separation. RMC-7977 and IS (verapamil or terfenadine) were detected by positive electrospray ionization using multiple reaction monitoring (RMC-7977: m/z 865.4/706.4 or m/z 865.3/833.5; verapamil: m/z 455.2/164.9; terfenadine: m/z 472.3/436.4). […] BA analysis on blood and tissue samples from xenograft models was run at Wuxi AppTec. BA analysis on blood and tissue samples from allograft models and GEMM was run at Revolution Medicines.

murine PDAC cell lines = test: Murine cell viability assay; type: cell-based; details: most murine PDAC cell lines; 72 hours
Description: PDAC murine cell lines harboring KrasG12D or KrasG12C mutations were seeded at 2×10^3 in a 96-well plate. Cells were treated 24 hours later with DMSO or serial dilutions of RMC-7977. Cell viability was evaluated 72 hours later by measuring adenosine triphosphate (ATP) levels using the CellTiter-Glo® Luminescent Cell Viability Assay (Promega, G7572) according to the manufacturer's instructions. For experiments comparing naive and resistant cell lines, live cells were fluorescently labelled using Calcein AM (20-minute incubation at 500 nM, Thermo Fisher) and counted using the SpectraMax i3X multimode detection platform (Molecular Devices). Technical triplicates were run for each biological replicate and a total of 3-4 biological replicates was done for each cell line. Growth percentage was calculated by normalizing drug-treated values to DMSO control, which was set to 100%. Four-parameter drug response curves were generated from 3+ biological replicates in GraphPad Prism. Mean±s.d. was plotted for each tested dilution.

CCn1c(-c2cc(N3CCN(C4CC4)CC3)cnc2[C@H](C)OC)c2c3cc(ccc31)-c1csc(n1)C[C@H](NC(=O)[C@H]1[C@@H]3COC[C@@H]31)C(=O)N1CCC[C@H](N1)C(=O)OCC(C)(C)C2 [RMC-7977]
fold lower EC50 in Capan-1 tumors compared to colon ([1]; normal colon): ~22 fold
fold lower EC50 in Capan-1 tumors compared to skin ([1]; normal skin): ~8 fold
Kp [2]: > 1
potency in concentration-response cell viability assays (murine PDAC cell lines): low nanomolar potency
